What follows are compounds tested against T1, HDAC6 (Homo sapiens, UniProt Q9UBN7) (assay: In vitro Histone Deacetylase Assay (enzymatic HDAC6 electrophoretic mobility shift assay)). Conditions: full length human recombinant HDAC6, 1 nM enzyme, 2 μM peptide substrate RHKK(Ac)-NH2, 25° C.; read-out: HDAC6 activity range.
T1 construct: Full length human recombinant HDAC6 protein was expressed in baculoviral system; made in house; host or cells: baculoviral system
T1 sequence (Q9UBN7 1-1215): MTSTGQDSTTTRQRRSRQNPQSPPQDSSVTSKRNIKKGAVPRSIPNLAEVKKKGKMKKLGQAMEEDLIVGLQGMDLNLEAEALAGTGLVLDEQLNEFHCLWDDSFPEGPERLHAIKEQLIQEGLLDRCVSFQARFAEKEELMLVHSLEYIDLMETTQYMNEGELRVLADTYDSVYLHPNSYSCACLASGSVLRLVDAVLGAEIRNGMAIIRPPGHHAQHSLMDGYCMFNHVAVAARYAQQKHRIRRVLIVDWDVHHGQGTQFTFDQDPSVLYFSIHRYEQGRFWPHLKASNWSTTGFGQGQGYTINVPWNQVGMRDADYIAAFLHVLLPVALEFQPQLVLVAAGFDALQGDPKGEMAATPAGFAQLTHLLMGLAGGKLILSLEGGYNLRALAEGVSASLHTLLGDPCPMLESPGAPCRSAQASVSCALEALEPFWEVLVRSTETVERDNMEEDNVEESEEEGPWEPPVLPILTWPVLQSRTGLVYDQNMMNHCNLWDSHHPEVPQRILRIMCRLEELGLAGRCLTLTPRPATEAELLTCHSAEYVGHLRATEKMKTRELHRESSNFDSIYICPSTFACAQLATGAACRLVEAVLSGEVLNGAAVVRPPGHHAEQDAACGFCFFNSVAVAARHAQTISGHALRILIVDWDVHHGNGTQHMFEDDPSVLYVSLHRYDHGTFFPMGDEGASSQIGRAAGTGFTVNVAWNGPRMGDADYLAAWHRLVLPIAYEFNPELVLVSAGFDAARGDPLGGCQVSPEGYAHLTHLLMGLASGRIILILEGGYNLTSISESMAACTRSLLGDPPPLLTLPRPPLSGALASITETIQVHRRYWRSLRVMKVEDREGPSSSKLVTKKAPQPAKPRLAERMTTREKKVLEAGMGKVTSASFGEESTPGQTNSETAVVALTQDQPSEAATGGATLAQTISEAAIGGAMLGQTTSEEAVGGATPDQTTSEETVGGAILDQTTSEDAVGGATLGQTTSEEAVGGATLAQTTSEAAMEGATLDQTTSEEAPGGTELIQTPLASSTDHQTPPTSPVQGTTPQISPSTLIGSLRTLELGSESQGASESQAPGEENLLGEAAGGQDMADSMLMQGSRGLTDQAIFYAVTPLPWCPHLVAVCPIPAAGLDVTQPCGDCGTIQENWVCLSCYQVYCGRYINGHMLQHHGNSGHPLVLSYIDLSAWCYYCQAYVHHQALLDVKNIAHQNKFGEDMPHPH
Type: biochemical
Summary of the method: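 Deacetylation was read by microfluidic mobility shift as product/(substrate+product) peak ratio and normalised to 0% and 100% inhibition controls. Reactions used 1 nM baculovirus-expressed full-length human HDAC6 and 2 μM labelled RHKK(Ac)-NH2 in pH 7.5 HEPES buffer with 1% DMSO at 25 °C. IC50 was from 4-parameter fits of 12 concentrations.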

Compound | IC50 [nM]
COc1ccncc1N1CC[C@@]2(CCc3cc(C(=O)NO)ccc3C2)C1=O [Compound I-142, (S)-N-hydroxy-1′-(4-methoxypyridin-3-yl)-2′-oxo-3,4-dihydro-1H-spiro[naphthalene-2,3′-pyrrolidine]-6-carboxamide] | ≤ 100
COc1ncccc1N1CC[C@]2(CCc3cc(C(=O)NO)ccc3C2)C1=O [Compound I-145, (R)-N-hydroxy-1′-(2-methoxypyridin-3-yl)-2′-oxo-3,4-dihydro-1H-spiro[naphthalene-2,3′-pyrrolidine]-6-carboxamide] | ≤ 100
COc1ncccc1N1CC[C@@]2(CCc3cc(C(=O)NO)ccc3C2)C1=O [Compound I-146, (S)-N-hydroxy-1′-(2-methoxypyridin-3-yl)-2′-oxo-3,4-dihydro-1H-spiro[naphthalene-2,3′-pyrrolidine]-6-carboxamide] | ≤ 100
COc1cc(F)cc(N2CC[C@@]3(CCc4cc(C(=O)NO)ccc4C3)C2=O)c1 [Compound I-148, (2S)-1′-(3-fluoro-5-methoxyphenyl)-N-hydroxy-2′-oxo-3,4-dihydro-1H-spiro[naphthalene-2,3′-pyrrolidine]-6-carboxamide] | ≤ 100
COc1cc(N2CC[C@@]3(CCc4cc(C(=O)NO)ccc4C3)C2=O)ccn1 [Compound I-150, (S)-N-hydroxy-1′-(2-methoxypyridin-4-yl)-2′-oxo-3,4-dihydro-1H-spiro[naphthalene-2,3′-pyrrolidine]-6-carboxamide] | ≤ 100
O=C(NO)c1ccc2c(c1)CC[C@@]1(CCN(c3ccc(F)c(F)c3)C1=O)C2 [Compound I-155, (S)-1′-(3,4-difluorophenyl)-N-hydroxy-2′-oxo-3,4-dihydro-1H-spiro[naphthalene-2,3′-pyrrolidine]-6-carboxamide] | ≤ 100
CC(C)CN1CC[C@]2(CCc3cc(C(=O)NO)ccc3C2)C1=O [Compound I-159, (R)-N-hydroxy-1′-isobutyl-2′-oxo-3,4-dihydro-1H-spiro[naphthalene-2,3′-pyrrolidine]-6-carboxamide] | ≤ 100
CC(C)CN1CC[C@@]2(CCc3cc(C(=O)NO)ccc3C2)C1=O [Compound I-160, (S)-N-hydroxy-1′-isobutyl-2′-oxo-3,4-dihydro-1H-spiro[naphthalene-2,3′-pyrrolidine]-6-carboxamide] | 100 to 500
CCN1CC[C@]2(CCc3cc(C(=O)NO)ccc3C2)C1=O [Compound I-161, (R)-1′-ethyl-N-hydroxy-2′-oxo-3,4-dihydro-1H-spiro[naphthalene-2,3′-pyrrolidine]-6-carboxamide] | ≤ 100
O=C(NO)c1ccc2c(c1)CC[C@@]1(CCN(C3CCCC3)C1=O)C2 [Compound I-164, (S)-1′-cyclopentyl-N-hydroxy-2′-oxo-3,4-dihydro-1H-spiro[naphthalene-2,3′-pyrrolidine]-6-carboxamide] | 100 to 500
O=C(NO)c1ccc2c(c1)CC[C@]1(CCN(c3cc(F)ccc3F)C1=O)C2 [Compound I-167, (R)-1′-(2,5-difluorophenyl)-N-hydroxy-2′-oxo-3,4-dihydro-1H-spiro[naphthalene-2,3'-pyrrolidine]-6-carboxamide] | ≤ 100
Cn1cc(N2CC[C@]3(CCc4cc(C(=O)NO)ccc4C3)C2=O)cn1 [Compound I-168, (R)-N-hydroxy-1′-(1-methyl-1H-pyrazol-4-yl)-2′-oxo-3,4-dihydro-1H-spiro[naphthalene-2,3′-pyrrolidine]-6-carboxamide] | ≤ 100

The remaining lines, values ahead:

IC50 [nM] | Compound
≤ 100 | COc1cncc(N2CC[C@]3(CCc4cc(C(=O)NO)ccc4C3)C2=O)c1 [Compound I-143, (R)-N-hydroxy-1′-(5-methoxypyridin-3-yl)-2′-oxo-3,4-dihydro-1H-spiro[naphthalene-2,3′-pyrrolidine]-6-carboxamide]
≤ 100 | COc1cncc(N2CC[C@@]3(CCc4cc(C(=O)NO)ccc4C3)C2=O)c1 [Compound I-144, (2S)-N-hydroxy-1′-(5-methoxypyridin-3-yl)-2′-oxo-3,4-dihydro-1H-spiro[naphthalene-2,3′-pyrrolidine]-6-carboxamide]
≤ 100 | COc1ccc(F)c(N2CC[C@@]3(CCc4cc(C(=O)NO)ccc4C3)C2=O)c1 [Compound I-147, (2S)-1′-(2-fluoro-5-methoxyphenyl)-N-hydroxy-2′-oxo-3,4-dihydro-1H-spiro[naphthalene-2,3′-pyrrolidine]-6-carboxamide]
≤ 100 | COc1cc(N2CC[C@]3(CCc4cc(C(=O)NO)ccc4C3)C2=O)ccn1 [Compound I-149, (R)-N-hydroxy-1′-(2-methoxypyridin-4-yl)-2′-oxo-3,4-dihydro-1H-spiro[naphthalene-2,3′-pyrrolidine]-6-carboxamide]
≤ 100 | CN(C)c1ccc(N2CC[C@]3(CCc4cc(C(=O)NO)ccc4C3)C2=O)cn1 [Compound I-151, (2R)-1′-[6-(dimethylamino)pyridin-3-yl]-N-hydroxy-2′-oxo-3,4-dihydro-1H-spiro[naphthalene-2,3′-pyrrolidine]-6-carboxamide]
100 to 500 | CN(C)c1ccc(N2CC[C@@]3(CCc4cc(C(=O)NO)ccc4C3)C2=O)cn1 [Compound I-152, (2S)-1′-[6-(dimethylamino)pyridin-3-yl]-N-hydroxy-2′-oxo-3,4-dihydro-1H-spiro[naphthalene-2,3′-pyrrolidine]-6-carboxamide]
≤ 100 | O=C(NO)c1ccc2c(c1)CC[C@@]1(CCN(c3cncc(F)c3)C1=O)C2 [Compound I-153, (2S)-1′-(5-fluoropyridin-3-yl)-N-hydroxy-2′-oxo-3,4-dihydro-1H-spiro[naphthalene-2,3′-pyrrolidine]-6-carboxamide]
≤ 100 | O=C(NO)c1ccc2c(c1)CC[C@@]1(CCN(c3ccc(F)cc3)C1=O)C2 [Compound I-154, (S)-1′-(4-fluorophenyl)-N-hydroxy-2′-oxo-3,4-dihydro-1H-spiro[naphthalene-2,3′-pyrrolidine]-6-carboxamide]
≤ 100 | O=C(NO)c1ccc2c(c1)CC[C@@]1(CCN(c3cccc(F)c3F)C1=O)C2 [Compound I-156, (S)-1′-(2,3-difluorophenyl)-N-hydroxy-2′-oxo-3,4-dihydro-1H-spiro[naphthalene-2,3′-pyrrolidine]-6-carboxamide]
≤ 100 | O=C(NO)c1ccc2c(c1)CC[C@@]1(CCN(c3ccccc3F)C1=O)C2 [Compound I-157, (S)-1′-(2-fluorophenyl)-N-hydroxy-2′-oxo-3,4-dihydro-1H-spiro[naphthalene-2,3′-pyrrolidine]-6-carboxamide]
≤ 100 | COc1cccc(N2CC[C@@]3(CCc4cc(C(=O)NO)ccc4C3)C2=O)c1 [Compound I-158, (S)-N-hydroxy-1′-(3-methoxyphenyl)-2′-oxo-3,4-dihydro-1H-spiro[naphthalene-2,3′-pyrrolidine]-6-carboxamide]
≤ 100 | CCN1CC[C@@]2(CCc3cc(C(=O)NO)ccc3C2)C1=O [Compound I-162, (S)-1′-ethyl-N-hydroxy-2′-oxo-3,4-dihydro-H-spiro[naphthalene-2,3′-pyrrolidine]-6-carboxamide]
≤ 100 | O=C(NO)c1ccc2c(c1)CC[C@]1(CCN(C3CCCC3)C1=O)C2 [Compound I-163, (R)-1′-cyclopentyl-N-hydroxy-2′-oxo-3,4-dihydro-1H-spiro[naphthalene-2,3′-pyrrolidine]-6-carboxamide]
≤ 100 | O=C(NO)c1ccc2c(c1)CC[C@]1(CCN(CC(F)(F)F)C1=O)C2 [Compound I-165, (R)-N-hydroxy-2′-oxo-1′-(2,2,2-trifluoroethyl)-3,4-dihydro-1H-spiro[naphthalene-2,3′-pyrrolidine]-6-carboxamide]
100 to 500 | O=C(NO)c1ccc2c(c1)CC[C@@]1(CCN(CC(F)(F)F)C1=O)C2 [Compound I-166, (S)-N-hydroxy-2′-oxo-1′-(2,2,2-trifluoroethyl)-3,4-dihydro-1H-spiro[naphthalene-2,3′-pyrrolidine]-6-carboxamide]

— US9630922B2, “3-spiro-7-hydroxamic acid tetralins as HDAC inhibitors” (Forma Therapeutics, Inc., priority 2015, dated 2017)
